Experimental data reported in US9493781B2, “Synthetic brassica-derived chloroplast transit peptides” (DOW AGROSCIENCES LLC, priority 2012, dated 2016).

B1: TraP23: chloroplast transit peptide TraP23 v2, SEQ ID NO:39 (protein)
chain: MAQINKSANGVRNASLISNFSNTRQAKSPFSLSCGTRLKNSSRGLKKVAVRLIGSRVKVSAS
modifications: Chloroplast Transit Peptide

Assays:
Zea mays = assay: Post-emergence glyphosate tolerance of dgt-28 transformed T0 corn; type: in vivo
Procedure: Herbicide Tolerance in dgt-28 Transformed Corn. Zea mays dgt-28 transformation events (T0) were allowed to acclimate in the greenhouse and were grown until plants had transitioned from tissue culture to greenhouse growing conditions (i.e., 2-4 new, normal looking leaves had emerged from the whorl). Plants were grown at 27° C. under 16 hour light: 8 hour dark conditions in the greenhouse. The plants were then treated with commercial formulations of DURANGO DMA™ (containing the herbicide glyphosate) with the addition of 2% w/v ammonium-sulfate. Herbicide applications were made with a track sprayer at a spray volume of 187 L/ha, 50-cm spray height. T0 plants were sprayed with a range of glyphosate from 280-4480 g ae/ha glyphosate, which is capable of significant injury to untransformed corn lines. A lethal dose is defined as the rate that causes >95% injury to the B104 inbred.
Post-Emergence Herbicide Tolerance in dgt-28 Transformed T0 Corn. T0 events of dgt-28 linked with TraP4, TraP5, TraP8 and TraP23 were generated by Agrobacterium transformation and were allowed to acclimate under controlled growth chamber conditions until 2-4 new, normal looking leaves had emerged from the whorl. Plants were assigned individual identification numbers and sampled for copy number analyses of both dgt-28 and aad-1. Based on copy number analyses, plants were selected for protein expression analyses. […]

[1] = tested on: tobacco (cv. Petit Havana); assay: Postemergence glyphosate tolerance of dgt-28 transformed T1 and T2 tobacco; type: in vivo; settings: 14 DAT, 2240 g ae/ha glyphosate (DURANGO DMA)
Text: Postemergence herbicide tolerance in dgt-28 transformed T1 tobacco. T1 resistant plants from each event used in the progeny testing were given unique identifiers and sampled for zygosity analyses of the dgt-28 gene. Zygosity data were used to assign 2 hemizygous and 2 homozygous replicates to each rate of glyphosate applied allowing for a total of 4 replicates per treatment. These plants were compared against wildtype Petite havana tobacco. All plants were sprayed with a track sprayer set at 187 L/ha. The plants were sprayed from a range of 560-4480 g ae/ha DURANGO DMA™. All applications were formulated in water with the addition of 2% w/v ammonium sulfate (AMS). Plants were evaluated at 7 and 14 days after treatment. Plants were assigned an injury rating with respect to overall visual stunting, chlorosis, and necrosis. The T1 generation is segregating, so some variable response is expected due to difference in zygosity.
Rates of DURANGO DMA™ ranging from 420-3360 g ae/ha glyphosate were applied to 2-3 leaf tobacco as previously described.

Molecule	Glyphosate rate that controlled non-transformed plants (Zea mays)	% Injury Ave [1]
O=C(O)CNCP(=O)(O)O [glyphosate]	≥ 280 g ae/ha	–
B1	–	9.5%
